Data on one compound can be found in publication PMC6891286, “Towards the Development of an In vivo Chemical Probe for Cyclin G Associated Kinase (GAK)” (Molecules, 2019).

The target in one series is STK16 (Homo sapiens, UniProt O75716). The experiment in a line: NAK family TR-FRET binding displacement assay. The note with it: NAK family FRET screening; read-out: Binding displacement assay STK16 Ki. For orientation: Time-resolved FRET reads energy transfer from a long-lived donor to a nearby acceptor.
For another series, the target named is AAK1 (Homo sapiens, UniProt Q2M2I8). In words: NAK family TR-FRET binding displacement assay. The note with it: NAK family FRET screening.
The nature of the next series: Kinetic Solubility. The series is classed as physicochemical. Conditions: pH 7.4, aqueous buffer, kinetic from dmso stock, PBS pH7.4 (100 µM).
Series [1] in a line: pharmacokinetic profiling in mice, oral dosing. The note with it: C57BL/6 mice, 10 mg/kg po; for Cmax / AUC(0-inf) / Tmax: 10 mg/kg. The series is classed as in vivo. The procedure: Pharmacokinetic profiling was performed by SAI Life Sciences (Hyderabad, India). […] Prior approval of the Institutional Animal Ethics Committee (IAEC) was obtained before initiation of the study. Healthy male C57BL/6 mice (8–12 weeks old) weighing between 20 and 35 g were procured from (Envigo Research Private Ltd., City, Hyderabad, India). Three mice were housed in each cage. […] Temperature and humidity were recorded by an automatically controlled data logger system. All animals were provided a laboratory rodent diet (Envigo Research Private Ltd., Hyderabad, India). Reverse osmosis water treated with ultraviolet light was provided ad libitum. Eighteen male mice were weighed and divided in to two groups (Group 1 and Group 2), with nine mice in each group. […] The dosing volume administered was 10 mL/kg for the oral route. […] Plasma samples were separated by centrifugation at 4000 rpm for 10 min and stored below −70 °C until bioanalysis. […] The plasma concentration-time data were then used for the pharmacokinetic analysis. A non-compartmental analysis module in Phoenix WinNonlin (Version 6.3, Certara USA Inc., Raleigh, NC, USA) was used to assess the pharmacokinetic parameters. Maximum concentration (Cmax) and time to reach the maximum concentration (Tmax) were the observed values. The areas under the concentration time curve (AUClast and AUCinf) were calculated by linear trapezoidal rule.

In series [2] the test system is prostate cancer cells that contain constitutively-active splice variants of the androgen receptor. Also on record: method as in PMID 30973735. Conditions: cited from earlier work.
The next series has as its target T1, GAK (Homo sapiens, UniProt O14976).
T1 sequence (O14976 1-1311): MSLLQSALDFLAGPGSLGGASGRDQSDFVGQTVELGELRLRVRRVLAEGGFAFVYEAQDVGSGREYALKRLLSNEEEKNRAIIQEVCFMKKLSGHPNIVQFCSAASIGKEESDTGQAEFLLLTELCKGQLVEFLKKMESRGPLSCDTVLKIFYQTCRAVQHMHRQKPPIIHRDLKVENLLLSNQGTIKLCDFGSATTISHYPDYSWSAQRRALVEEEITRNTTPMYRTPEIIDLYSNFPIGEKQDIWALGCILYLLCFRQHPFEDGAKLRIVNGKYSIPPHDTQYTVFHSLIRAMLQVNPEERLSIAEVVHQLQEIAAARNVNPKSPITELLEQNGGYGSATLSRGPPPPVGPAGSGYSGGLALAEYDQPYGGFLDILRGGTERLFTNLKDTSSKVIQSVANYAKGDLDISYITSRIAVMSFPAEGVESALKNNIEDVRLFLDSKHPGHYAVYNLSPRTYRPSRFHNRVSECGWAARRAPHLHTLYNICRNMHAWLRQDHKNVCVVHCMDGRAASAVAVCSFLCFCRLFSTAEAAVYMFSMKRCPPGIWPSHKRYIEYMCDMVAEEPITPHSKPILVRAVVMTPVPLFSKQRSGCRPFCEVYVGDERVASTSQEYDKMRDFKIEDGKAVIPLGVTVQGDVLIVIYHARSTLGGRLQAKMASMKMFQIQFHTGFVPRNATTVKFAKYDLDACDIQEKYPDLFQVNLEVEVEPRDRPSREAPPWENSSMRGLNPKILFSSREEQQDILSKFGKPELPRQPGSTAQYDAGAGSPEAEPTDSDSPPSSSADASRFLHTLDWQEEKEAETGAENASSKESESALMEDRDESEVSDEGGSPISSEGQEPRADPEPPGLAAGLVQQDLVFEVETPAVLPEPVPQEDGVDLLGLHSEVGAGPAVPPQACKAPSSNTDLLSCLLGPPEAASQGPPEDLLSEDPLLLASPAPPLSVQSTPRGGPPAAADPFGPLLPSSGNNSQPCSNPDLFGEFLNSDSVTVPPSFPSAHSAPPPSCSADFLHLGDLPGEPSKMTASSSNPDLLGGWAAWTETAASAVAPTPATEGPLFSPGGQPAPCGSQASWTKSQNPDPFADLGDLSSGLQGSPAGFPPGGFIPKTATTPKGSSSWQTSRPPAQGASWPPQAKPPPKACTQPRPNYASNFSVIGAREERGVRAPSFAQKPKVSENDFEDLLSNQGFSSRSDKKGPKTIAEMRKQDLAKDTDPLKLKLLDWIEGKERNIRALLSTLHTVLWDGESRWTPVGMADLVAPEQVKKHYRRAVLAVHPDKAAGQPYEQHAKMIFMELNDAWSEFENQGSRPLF
Also on record: method as in PMID 30768268, PMID 30973735. The note with it: cited from earlier work.

A short description of series [3]: mouse liver microsome metabolic stability. Conditions: for CLint scaled / half-life: mouse, mouse liver microsomes; for half-life: mean average, n = 2. The procedure:
SGC-GAK-1 (1) was incubated with MLMs in the presence or absence of added NADPH, and the compound was quantified at various time points over an hour.
The metabolic stability of the 4-anilinoquinolines (8–13) were evaluated in MLMs (Table 1). Half-lives for metabolic clearance were normalized to propranolol in each experimental run to control for variations in the MLM preparations.
For orientation: Liver microsomes are a subcellular fraction often used to study metabolism.

Where [4] appears, read: male, C57BL/6, mouse, plasma, po, 2 h pretreat 50 mpk ABT.
Setting [5] is: male, C57BL/6, mouse, plasma, po, without ABT.

Read-outs that look alike come from different tables or passages of the source. Some results are limits rather than exact numbers.

Sequence of AAK1 (Q2M2I8 whole entry): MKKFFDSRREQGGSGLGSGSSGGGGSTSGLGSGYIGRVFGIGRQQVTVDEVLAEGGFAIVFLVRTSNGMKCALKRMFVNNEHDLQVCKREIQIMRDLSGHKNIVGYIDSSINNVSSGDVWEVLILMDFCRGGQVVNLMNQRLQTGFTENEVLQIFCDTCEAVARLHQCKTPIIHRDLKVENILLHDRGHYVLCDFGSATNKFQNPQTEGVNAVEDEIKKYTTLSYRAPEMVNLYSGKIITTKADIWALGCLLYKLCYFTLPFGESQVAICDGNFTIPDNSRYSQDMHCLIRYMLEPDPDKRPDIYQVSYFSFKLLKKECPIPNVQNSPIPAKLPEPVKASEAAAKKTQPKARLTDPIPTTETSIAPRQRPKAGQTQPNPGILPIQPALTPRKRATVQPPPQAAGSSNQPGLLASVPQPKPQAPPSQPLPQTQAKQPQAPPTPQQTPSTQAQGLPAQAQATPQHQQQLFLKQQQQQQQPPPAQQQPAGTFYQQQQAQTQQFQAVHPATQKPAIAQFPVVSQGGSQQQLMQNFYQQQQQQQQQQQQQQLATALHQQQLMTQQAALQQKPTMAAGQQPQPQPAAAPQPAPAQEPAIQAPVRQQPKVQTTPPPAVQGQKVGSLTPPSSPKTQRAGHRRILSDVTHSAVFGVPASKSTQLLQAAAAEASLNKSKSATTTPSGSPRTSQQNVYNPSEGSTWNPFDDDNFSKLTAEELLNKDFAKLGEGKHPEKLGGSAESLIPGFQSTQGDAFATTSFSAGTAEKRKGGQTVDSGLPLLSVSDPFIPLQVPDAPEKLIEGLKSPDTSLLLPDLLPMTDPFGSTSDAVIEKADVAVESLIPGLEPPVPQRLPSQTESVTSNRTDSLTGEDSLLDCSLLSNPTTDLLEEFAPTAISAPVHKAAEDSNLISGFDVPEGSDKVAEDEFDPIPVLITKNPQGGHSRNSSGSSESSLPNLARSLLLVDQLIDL
Sequence of STK16 (O75716 whole entry): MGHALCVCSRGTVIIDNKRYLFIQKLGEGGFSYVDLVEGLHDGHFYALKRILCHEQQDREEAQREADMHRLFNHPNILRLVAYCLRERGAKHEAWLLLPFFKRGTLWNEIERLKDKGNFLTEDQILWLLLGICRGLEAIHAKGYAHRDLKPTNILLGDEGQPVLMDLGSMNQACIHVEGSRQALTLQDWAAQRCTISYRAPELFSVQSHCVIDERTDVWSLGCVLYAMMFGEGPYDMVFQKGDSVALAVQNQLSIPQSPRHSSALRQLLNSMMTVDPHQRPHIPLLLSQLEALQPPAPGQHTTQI

One may read the Ki as a dissociation constant, usually derived from enzyme kinetics or from competition with a known ligand. As a reminder, the Cmax is the peak of the concentration-time curve. What is called AUC(0-inf) is the area under the concentration-time curve extrapolated to infinity. Broadly, the Tmax is the time at which the peak concentration occurs. What is called CLint scaled is the rate of metabolic loss divided by the concentration. Higher therefore signals rapid turnover. Turning to `COc1cc(Nc2ccnc3ccc(Br)cc23)cc(OC)c1OC` [Compound 1], the Ki was 51 µM at STK16 and 53 µM at AAK1. Further, the solubility kinetic in the series “Kinetic Solubility” (read-out: Kinetic Solubility µM) worked out at 57.8 µM; in “Kinetic Solubility” (read-out: Kinetic Solubility µg/mL), 22.5 µg/mL. For the same compound, the “Cmax” value is 97 ng/mL in series [1] (without ABT); 650 ng/mL in series [1] (male, C57BL/6, mouse, plasma, po, 2 h pretreat 50 mpk ABT, read-out: Cmax); < 100 ng/mL in series [1] (male, C57BL/6, mouse, plasma, po, without ABT, read-out: Cmax). Also, the AUC(0-inf) in series [1] (setting [4]) is 1900 ng·h/mL; in series [1] (setting [5]), 98 ng·h/mL. Besides, the Tmax in series [1] (setting [4]) and in series [1] (setting [5]) was 30 min in each case. In addition, the half-life was < 60 min in series [1] (male, mouse, plasma, without ABT, read-out: T1/2 in mice); 130 min in series [3] (T1/2 (min) (+) ABT, (+) ABT); 5.7 min in series [3] (T1/2 (min) (−) ABT, (−) ABT); 5.7 min in series [3] (T1/2 (min), mouse liver microsomes with NADPH). Moreover, in series [2], the “viability of prostate cancer cells” value was “potently inhibits”. Besides, the “GAK DSF ΔTm” value at GAK was 7.7 °C. In series [3] (mouse liver microsomes in the absence of NADPH, over an hour), the “degradation in MLM” value is given as “No degradation”. Further, the CLint scaled in series [3] (Clint (mL/min/kg) (+) ABT, (+) ABT) came out at 40 mL/min/kg; in series [3] (Clint (mL/min/kg) (−) ABT, (−) ABT) it was 990 mL/min/kg.
